Experimental findings from US7205410B2, “4-(aminomethyl)-piperidine benzamides for treating gastrointestinal disorders” (Janssen Pharmaceutica, N.V., priority 1998, dated 2007) are described below.

The target of the assay is T1, 5HT4 (Rattus norvegicus, UniProt Q62758).
T1 construct: 5HT4 Antagonism in Rat Oesophageal Tunica Muscularis Mucosae; from tissue; host or cells: rat oesophageal tunica muscularis mucosae
Briefly: 5HT4 antagonism in rat oesophageal tunica muscularis mucosae. In kind it is cell-based. Conditions: 5HT4 antagonistic data, isolated rat oesophageal tunica muscularis mucosae, method of Baxter et al.; for Kb: read-out: pA2 (converted). As to the method:
5HT4 Antagonism in Rat Oesophageal Tunica Muscularis Mucosae
The 5HT4 antagonistic potence of the present compounds was measured as described in Baxter G. S. et. al, Naunyn-Schmiedeberg's Arch. Pharmacol., 343, 439-446 ([…]).
The pA2 value is calculated as follows: [formula]

T1 sequence (Q62758 whole entry): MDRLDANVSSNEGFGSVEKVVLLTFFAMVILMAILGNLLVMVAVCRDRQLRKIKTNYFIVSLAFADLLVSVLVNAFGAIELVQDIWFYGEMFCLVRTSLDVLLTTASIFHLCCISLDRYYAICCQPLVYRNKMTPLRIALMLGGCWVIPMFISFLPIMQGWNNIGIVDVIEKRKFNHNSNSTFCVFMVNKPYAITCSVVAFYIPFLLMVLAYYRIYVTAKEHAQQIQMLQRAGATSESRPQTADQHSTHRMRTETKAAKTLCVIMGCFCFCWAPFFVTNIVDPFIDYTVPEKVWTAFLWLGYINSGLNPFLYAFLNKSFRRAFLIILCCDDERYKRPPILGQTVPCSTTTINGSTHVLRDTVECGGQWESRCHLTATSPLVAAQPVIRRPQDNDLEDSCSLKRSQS

On to `CC(=O)CCCN1CC[C@@H](CNC(=O)c2cc(Cl)cc3c2OCCO3)[C@H](O)C1` (racemic) [Compound 65, (±)-(trans)-7-chloro-2,3 dihydro-N-[[3-hydroxy-1-(4-oxopentyl)-4-piperidinyl]methyl]-1,4-benzodioxin-5-carboxamide], for which the Kb was 0.363 nM.

For `COCCCN1CC[C@@H](CNC(=O)c2cc(Cl)cc3c2OCCO3)[C@H](O)C1` (racemic) [Compound 67, (±)-(trans)-7-chloro-2,3-dihydro-N-[[3-hydroxy-1-(3-methoxy-propyl)-4-piperidinyl]methyl]-1,4-benzodioxin-5-carboxamide], the Kb is 0.372 nM. The same measure, in the same setting: under `Cc1nccnc1NCCCN1CC[C@@H](CNC(=O)c2cc(Cl)cc3c2OCCO3)[C@H](O)C1` (racemic) [Compound 84, (±)-(trans)-7-chloro-2,3-dihydro-N-[[3-hydroxy-1-[3-[(3-methyl-2-pyrazinyl)amino]propyl]-4-piperidinyl]methyl]-1,4-benzodioxin-5-carboxamide] stands 0.0282 nM; under `O=C(NC[C@@H]1CCN(CCNc2nccc(O)n2)C[C@H]1O)c1cc(Cl)cc2c1OCCO2` (relative stereo) [Compound 85, (trans)-7-chloro-2,3-dihydro-N-[[3-hydroxy-1-[2-[(4-hydroxy-2 pyrimidinyl)amino]-ethyl]-4-piperidinyl]methyl]-1,4-benzodioxin-5-carboxamide monohydrate], 0.302 nM. In turn, `CCCCN1CCC(CNC(=O)c2cc(Cl)cc3c2OCC3)C(O)C1` (centres unmarked) [Compound 1] showed a pA2 of 8.53. Same read-out and setting: next, `CCCCN1CCC(CNC(=O)c2cc(Cl)cc3c2OCC3)C(O)C1` (centres unmarked) [Compound 2]: 10.5; `COCCCN1CCC(CNC(=O)c2cc(Cl)cc3c2OCC3)C(O)C1` (centres unmarked) [Compound 3]: 8.07.

With `O=C(NCC1CCN(Cc2ccccc2)CC1O)c1cc(Cl)cc2c1OCC2` (centres unmarked) [Compound 11], the pA2 is 8.76. Same read-out and setting: under `O=C(NCC1CCN(Cc2ccccc2)CC1O)c1cc(Cl)cc2c1OCC2` (centres unmarked) [Compound 12] stands 10.2; under `O=C(NCC1CCN(CCCOc2ccc(F)cc2)CC1O)c1cc(Cl)cc2c1OCC2` (centres unmarked) [Compound 13], 8.35; under `O=C(NCC1CCN(CCCOc2ccc(F)cc2)CC1O)c1cc(Cl)cc2c1OCC2` (centres unmarked) [Compound 14], 9.2.

For `O=C(CN1CCC(CNC(=O)c2cc(Cl)cc3c2OCC3)C(O)C1)c1ccccc1` (centres unmarked) [Compound 15], the pA2 was found to be 8.4. `CS(=O)(=O)NCCN1CCC(CNC(=O)c2cc(Cl)cc3c2OCC3)C(O)C1` (centres unmarked) [Compound 17] had a pA2 of 9.6.

`O=C(NCC1CCN(CCOCCO)CC1O)c1cc(Cl)cc2c1OCC2` (centres unmarked) [Compound 29] displayed a pA2 of 9.6.

Regarding `COC(=O)CCCN1CCC(CNC(=O)c2cc(Cl)cc3c2OCC3)C(O)C1` (centres unmarked) [Compound 31], the pA2 amounted to 9.4. In turn, `Cl.O=C(O)CCCN1CCC(CNC(=O)c2cc(Cl)cc3c2OCC3)C(O)C1` (centres unmarked) [Compound 32] came in with a pA2 of under 8. Still for that read-out and setting: under `CCCCN1CCC(CNC(=O)c2cc(Cl)cc3c2OCCC3)C(O)C1` (centres unmarked) [Compound 36] stands 9.8; under `O=C(NCC1CCN(CCCO)CC1O)c1cc(Cl)cc2c1OCCC2` (centres unmarked) [Compound 39], 9.81; under `O=C(NCC1CCN(Cc2ccccc2)CC1O)c1cc(Cl)cc2c1OCCC2` (centres unmarked) [Compound 41], 9.7. Same read-out and setting: next, `O=C(CN1CCC(CNC(=O)c2cc(Cl)cc3c2OCCC3)C(O)C1)c1ccccc1.O=C(O)C(=O)O` (centres unmarked) [Compound 42]: 9.5; `O=C(NCC1CCN(CCCOc2ccc(F)cc2)CC1O)c1cc(Cl)cc2c1OCCC2` (centres unmarked) [Compound 43]: 9.8. Still for that read-out and setting: next, `O=C(NCC1CCN(CCOCCO)CC1O)c1cc(Cl)cc2c1OCCC2.O=C(O)C(=O)O` (centres unmarked) [Compound 52]: 9.5; `COC(=O)CCCN1CCC(CNC(=O)c2cc(Cl)cc3c2OCCC3)C(O)C1` (centres unmarked) [Compound 53]: 9.5; `Cl.O=C(O)CCCN1CCC(CNC(=O)c2cc(Cl)cc3c2OCCC3)C(O)C1` (centres unmarked) [Compound 54]: 9.8.

In turn, `CCCCN1CCC(CNC(=O)c2cc(Cl)cc3c2OCCO3)C(O)C1.O=C(O)C(=O)O` (centres unmarked) [Compound 63] displayed a pA2 of 9.49.

Take `COCCCN1CCC(CNC(=O)c2cc(Cl)cc3c2OCCO3)C(O)C1.O=C(O)C(=O)O` (centres unmarked) [Compound 66]: the pA2 worked out at 9.26. The same measure, in the same setting: next, `O=C(NCC1CCN(CCCO)CC1O)c1cc(Cl)cc2c1OCCO2` (centres unmarked) [Compound 68]: 9.04; `N#CCCCN1CCC(CNC(=O)c2cc(Cl)cc3c2OCCO3)C(O)C1.O=C(O)C(=O)O` (centres unmarked) [Compound 74]: 9.22. On the same count and under the same terms, next, `O=C(NCC1CCN(Cc2ccccc2)CC1O)c1cc(Cl)cc2c1OCCO2` (centres unmarked) [Compound 77]: 9.19; `O=C(CN1CCC(CNC(=O)c2cc(Cl)cc3c2OCCO3)C(O)C1)c1ccccc1.O=C(O)C(=O)O` (centres unmarked) [Compound 78]: 8.44. On the same count and under the same terms, next, `O=C(NCC1CCN(CCCOc2ccc(F)cc2)CC1O)c1cc(Cl)cc2c1OCCO2` (centres unmarked) [Compound 79]: 7.93; `O=C(NCC1CCN(CCCOc2ccc(F)cc2)CC1O)c1cc(Cl)cc2c1OCCO2.O=C(O)C(=O)O` (centres unmarked) [Compound 80]: 8.83. Regarding `CCCCN1CCC(CNC(=O)c2cc(Cl)cc3c2OCCO3)C(OC)C1.O=C(O)C(=O)O` (centres unmarked) [Compound 86], the pA2 worked out at 8.2. Still for that read-out and setting: under `COCCCN1CCC(CNC(=O)c2cc(Cl)cc3c2OCCO3)C(OC)C1.O=C(O)C(=O)O` (centres unmarked) [Compound 87] stands 8.46; under `COC1CN(CCCOc2ccc(F)cc2)CCC1CNC(=O)c1cc(Cl)cc2c1OCCO2.O=C(O)C(=O)O` (centres unmarked) [Compound 88], 9.2. As to `COC1CN(Cc2ccccc2)CCC1CNC(=O)c1cc(Cl)cc2c1OCCO2` (centres unmarked) [Compound 89], the pA2 is on record as under 8. Same read-out and setting: under `Cl.O=C(NCC1CCN(CCOCCO)CC1O)c1cc(Cl)cc2c1OCCO2` (centres unmarked) [Compound 92] stands 9.7. As to `COC(=O)CCCN1CCC(CNC(=O)c2cc(Cl)cc3c2OCCO3)C(O)C1` (centres unmarked) [Compound 93], the pA2 was 9.4.

`Cl.O=C(O)CCCN1CCC(CNC(=O)c2cc(Cl)cc3c2OCCO3)C(O)C1` (centres unmarked) [Compound 94] gave a pA2 of 9.24. On the same count and under the same terms, under `CCCCN1CCC(O)(CNC(=O)c2cc(Cl)cc3c2OCCO3)CC1.Cl` [Compound 100] stands under 8. Same read-out and setting: next, `COCCCN1CCC(O)(CNC(=O)c2cc(Cl)cc3c2OCCO3)CC1.O=C(O)C(=O)O` [Compound 101]: under 7; `CS(=O)(=O)CCCN1CCC(O)(CNC(=O)c2cc(Cl)cc3c2OCCO3)CC1` [Compound 103]: under 8. On the same count and under the same terms, next, `CC(=O)CCCN1CCC(O)(CNC(=O)c2cc(Cl)cc3c2OCCO3)CC1` [Compound 106]: under 8. Compound `O=C(NCC1(O)CCN(CCOCCO)CC1)c1cc(Cl)cc2c1OCCO2.O=C(O)/C=C\C(=O)O` [Compound 107] yielded a pA2 of under 8. Regarding `CC(C)n1ccn(CCN2CCC(O)(CNC(=O)c3cc(Cl)cc4c3OCCO4)CC2)c1=O.O=C(O)C(=O)O` [Compound 116], the pA2 result was “˜8”. Still for that read-out and setting: next, `O=C(NCC1(O)CCN(CCC2OCCCO2)CC1)c1cc(Cl)cc2c1OCCO2` [Compound 117]: under 8; `CCCCN1CCC(CNC(=O)c2cc(Cl)cc3c2OCCCO3)C(O)C1` (centres unmarked) [Compound 119]: 10.65; `COCCCN1CCC(CNC(=O)c2cc(Cl)cc3c2OCCCO3)C(O)C1` (centres unmarked) [Compound 120]: 9.72. Same read-out and setting: under `CC(=O)CCCN1CCC(CNC(=O)c2cc(Cl)cc3c2OCCCO3)C(O)C1` (centres unmarked) [Compound 121] stands 9.9; under `N#CCCCN1CCC(CNC(=O)c2cc(Cl)cc3c2OCCCO3)C(O)C1` (centres unmarked) [Compound 126], 9.78; under `COCCCN1CCC(CNC(=O)c2cc(Cl)cc3c2OCCCO3)C(OC)C1.O=C(O)C(=O)O` (centres unmarked) [Compound 129], over 8. The same measure, in the same setting: next, `CCCCN1CCC(CNC(=O)c2cc(Cl)cc3c2OCCCO3)C(OC)C1.O=C(O)C(=O)O` (centres unmarked) [Compound 130]: 8.5; `CCCCN1CCC(CNC(=O)c2cc(Cl)cc3c2OCCCO3)C(OC)C1.O=C(O)C(=O)O` (centres unmarked) [Compound 131]: 9.5.

As for `COC1CN(Cc2ccccc2)CCC1CNC(=O)c1cc(Cl)cc2c1OCCCO2` (centres unmarked) [Compound 132], the pA2 turned out to be 8.5.

Turning to `COC1CN(CCCC(C)=O)CCC1CNC(=O)c1cc(Cl)cc2c1OCCCO2.O=C(O)C(=O)O` (centres unmarked) [Compound 135], the pA2 is reported as 8.1.

In turn, `COC1CN(CCCC(C)=O)CCC1CNC(=O)c1cc(Cl)cc2c1OCCCO2.O=C(O)C(=O)O` (centres unmarked) [Compound 139] displayed a pA2 of 8.6. The same measure, in the same setting: next, `O=C(NCC1CCN(CCCO)CC1O)c1cc(Cl)cc2c1OCCCO2` (centres unmarked) [Compound 144]: 10.4; `Cl.O=C(O)CCCN1CCC(CNC(=O)c2cc(Cl)cc3c2OCCCO3)C(O)C1` (centres unmarked) [Compound 146]: 9.1.

`N#CCCCN1CCC(O)(CNC(=O)c2cc(Cl)cc3c2OCCCO3)CC1.O=C(O)C(=O)O` [Compound 167] registered a pA2 of under 8.

With `COCCCN1CCC(O)(CNC(=O)c2cc(Cl)cc3c2OCCCO3)CC1.O=C(O)C(=O)O` [Compound 168], the pA2 was under 8. For `CS(=O)(=O)CCCN1CCC(O)(CNC(=O)c2cc(Cl)cc3c2OCCCO3)CC1.O` [Compound 169], the pA2 was under 8. On the same count and under the same terms, next, `CCCCN1CCC(O)(CNC(=O)c2cc(Cl)cc3c2OCCCO3)CC1.O=C(O)C(=O)O` [Compound 171]: under 8; `CC(=O)CCCN1CCC(O)(CNC(=O)c2cc(Cl)cc3c2OCCCO3)CC1.O` [Compound 180]: “˜7.5”. The same measure, in the same setting: under `CCCCN1CCC(CNC(=O)c2cc(Cl)cc3c2OCCCCO3)C(O)C1.O` (centres unmarked) [Compound 182] stands 9.4; under `N#CCCCN1CCC(CNC(=O)c2cc(Cl)cc3c2OCCCCO3)C(O)C1.O=C(O)C(=O)O` (centres unmarked) [Compound 188], 10.5.

What is called pA2 is the negative logarithm of the molar antagonist concentration that doubles the agonist concentration needed for the same response. The low end stands for lower antagonist potency, the high end for higher antagonist potency.
